# Assay results: patent US9873709B2 (priority 2013, dated 2018)
# System: JAK1-dependent STAT6 phosphorylation downstream of IL-13 stimulation in TF-1 human erythroleukemia cells
# Assay: cells
# Conditions: TF-1, read-out: IL-13-pSTAT6 IC50
row,SMILES,IC50 [nM]
1,"O=C(NC1COC2(CCNCC2)C1)c1ccc(Nc2nc3c(C4=CCN(C(=O)CCC(F)(F)F)CC4)cccn3n2)cc1 (centres unmarked) [Example 2-188, N-(1-oxa-8-azaspiro[4.5]decan-3-yl)-4-[[8-[1-(4,4,4-trifluorobutanoyl)-3,6-dihydro-2H-pyridin-4-yl]-[1,2,4]triazolo[1,5-a]pyridin-2-yl]amino]benzamide]",239
2,"O=C(NCC1CCC2(CCNCC2)CO1)c1ccc(Nc2nc3c(C4=CCN(C(=O)CCC(F)(F)F)CC4)cccn3n2)cc1 (centres unmarked) [Example 2-189, N-(2-oxa-9-azaspiro[5.5]undecan-3-ylmethyl)-4-[[8-[1-(4,4,4-trifluorobutanoyl)-3,6-dihydro-2H-pyridin-4-yl]-[1,2,4]triazolo[1,5-a]pyridin-2-yl]amino]benzamide]",110
3,"O=C(CCC(F)(F)F)N1CC=C(c2cccn3nc(Nc4ccc(C(=O)N5CCCC6(CNCCO6)C5)cc4)nc23)CC1 (centres unmarked) [Example 2-190, 4,4,4-trifluoro-1-[4-[2-[4-(1-oxa-4,8-diazaspiro[5.5]undecane-8-carbonyl)anilino]-[1,2,4]triazolo[1,5-a]pyridin-8-yl]-3,6-dihydro-2H-pyridin-1-yl]butan-1-one]",40.9
4,"O=C(CCC(F)(F)F)N1CC=C(c2cccn3nc(Nc4ccc(C(=O)N5CCC6(CCCNC6)CC5)cc4)nc23)CC1 [Example 2-191, 1-[4-[2-[4-(2,9-diazaspiro[5.5]undecane-9-carbonyl)anilino]-[1,2,4]triazolo[1,5-a]pyridin-8-yl]-3,6-dihydro-2H-pyridin-1-yl]-4,4,4-trifluoro-butan-1-one]",63.7
5,"O=C(NCC1CCCNC1)c1ccc(Nc2nc3c(C4=CCN(C(=O)CCC(F)(F)F)CC4)cccn3n2)cc1 (centres unmarked) [Example 2-192, N-(3-piperidylmethyl)-4-[[8-[1-(4,4,4-trifluorobutanoyl)-3,6-dihydro-2H-pyridin-4-yl]-[1,2,4]triazolo[1,5-a]pyridin-2-yl]amino]benzamide]",213
6,"O=C(NCCC1CCCNC1)c1ccc(Nc2nc3c(C4=CCN(C(=O)CCC(F)(F)F)CC4)cccn3n2)cc1 (centres unmarked) [Example 2-193, N-[2-(3-piperidyl)ethyl]-4-[[8-[1-(4,4,4-trifluorobutanoyl)-3,6-dihydro-2H-pyridin-4-yl]-[1,2,4]triazolo[1,5-a]pyridin-2-yl]amino]benzamide]",278
7,"NCCNC(=O)c1ccc(Nc2nc3c(C4=CCN(C(=O)CCC(F)(F)F)CC4)cccn3n2)cc1 [Example 2-194, N-(2-aminoethyl)-4-[[8-[1-(4,4,4-trifluorobutanoyl)-3,6-dihydro-2H-pyridin-4-yl]-[1,2,4]triazolo[1,5-a]pyridin-2-yl]amino]benzamide]",94.2
8,"O=C(CCC(F)(F)F)N1CC=C(c2cccn3nc(Nc4ccc(C(=O)N5CCCNCC5)cc4)nc23)CC1 [Example 2-195, 1-[4-[2-[4-(1,4-diazepane-1-carbonyl)anilino]-[1,2,4]triazolo[1,5-a]pyridin-8-yl]-3,6-dihydro-2H-pyridin-1-yl]-4,4,4-trifluoro-butan-1-one]",163
9,"CC1CN(C(=O)c2ccc(Nc3nc4c(C5=CCN(C(=O)CCC(F)(F)F)CC5)cccn4n3)cc2)CCN1 (centres unmarked) [Example 2-196, 4,4,4-trifluoro-1-[4-[2-[4-(3-methylpiperazine-1-carbonyl)anilino]-[1,2,4]triazolo[1,5-a]pyridin-8-yl]-3,6-dihydro-2H-pyridin-1-yl]butan-1-one]",29.9
10,"O=C(CCC(F)(F)F)N1CC=C(c2cccn3nc(Nc4ccc(C(=O)N5CCC6(CCN6)CC5)cc4)nc23)CC1 [Example 2-197, 1-[4-[2-[4-(1,7-diazaspiro[3.5]nonane-7-carbonyl)anilino]-[1,2,4]triazolo[1,5-a]pyridin-8-yl]-3,6-dihydro-2H-pyridin-1-yl]-4,4,4-trifluoro-butan-1-one]",295
11,"O=C(CCC(F)(F)F)N1CC=C(c2cccn3nc(Nc4ccc(C(=O)N5CCC6(CCCN6)CC5)cc4)nc23)CC1 [Example 2-198, 1-[4-[2-[4-(1,8-diazaspiro[4.5]decane-8-carbonyl)anilino]-[1,2,4]triazolo[1,5-a]pyridin-8-yl]-3,6-dihydro-2H-pyridin-1-yl]-4,4,4-trifluoro-butan-1-one]",53.9
12,"CN(Cc1ccccn1)C(=O)c1ccc(Nc2nc3c(C4=CCN(C(=O)CCC(F)(F)F)CC4)cccn3n2)cc1 [Example 2-199, N-methyl-N-(2-pyridylmethyl)-4-[[8-[1-(4,4,4-trifluorobulanoyl)-3,6-dihydro-2H-pyridin-4-yl]-[1,2,4]triazolo[1,5-a]pyridin-2-yl]amino]benzamide]",4.2
13,"O=C(CCC(F)(F)F)N1CC=C(c2cccn3nc(Nc4ccc(C(=O)N5CCN6CCCC6C5)cc4)nc23)CC1 (centres unmarked) [Example 2-200, 1-[4-[2-[4-(3,4,6,7,8,8a-hexahydro-1H-pyrrolo[1,2-a]pyrazine-2-carbonyl)anilino]-[1,2,4]triazolo[1,5-a]pyridin-8-yl]-3,6-dihydro-2H-pyridin-1-yl]-4,4,4-trifluoro-butan-1-one]",4.1
14,"CN1CC2CC(C1)N(C(=O)c1ccc(Nc3nc4c(C5=CCN(C(=O)CCC(F)(F)F)CC5)cccn4n3)cc1)C2 (centres unmarked) [Example 2-201, 4,4,4-trifluoro-1-[4-[2-[4-(3-methyl-3,6-diazabicyclo[3.2.1]octane-6-carbonyl)anilino]-[1,2,4]triazolo[1,5-a]pyridin-8-yl]-3,6-dihydro-2H-pyridin-1-yl]butan-1-one]",6
15,"O=C(CCC(F)(F)F)N1CC=C(c2cccn3nc(Nc4ccc(C(=O)N5CCN(C6CC6)CC5)cc4)nc23)CC1 [Example 2-202, 1-[4-[2-[4-(4-cyclopropylpiperazine-1-carbonyl)anilino]-[1,2,4]triazolo[1,5-a]pyridin-8-yl]-3,6-dihydro-2H-pyridin-1-yl]-4,4,4-trifluoro-butan-1-one]",11.5
16,"Cn1ccnc1CN1CCN(C(=O)c2ccc(Nc3nc4c(C5=CCN(C(=O)CCC(F)(F)F)CC5)cccn4n3)cc2)CC1 [Example 2-203, 4,4,4-trifluoro-1-[4-[2-[4-[4-[(1-methylimidazol-2-yl)methyl]piperazine-1-carbonyl]anilino]-[1,2,4]triazolo[1,5-a]pyridin-8-yl]-3,6-dihydro-2H-pyridin-1-yl]butan-1-one]",30.1
17,"CC(=O)N1CC2(C1)CN(C(=O)c1ccc(Nc3nc4c(C5=CCN(C(=O)CCC(F)(F)F)CC5)cccn4n3)cc1)C2 [Example 2-204, 1-[4-[2-[4-(6-acetyl-2,6-diazaspiro[3.3]heptane-2-carbonyl)anilino]-[1,2,4]triazolo[1,5-a]pyridin-8-yl]-3,6-dihydro-2H-pyridin-1-yl]-4,4,4-trifluoro-butan-1-one]",89.7
18,"CN1CC2CN(C(=O)c3ccc(Nc4nc5c(C6=CCN(C(=O)CCC(F)(F)F)CC6)cccn5n4)cc3)CC(C1)O2 [Example 2-205, 4,4,4-trifluoro-1-[4-[2-[4-(7-methyl-9-oxa-3,7-diazabicyclo[3.3.1]nonane-3-carbonyl)anilino]-[1,2,4]triazolo[1,5-a]pyridin-8-yl]-3,6-dihydro-2H-pyridin-1-yl]butan-1-one]",10
19,"Cc1cncc(CNC(=O)c2ccc(Nc3nc4c(C5=CCN(C(=O)CCC(F)(F)F)CC5)cccn4n3)cc2)c1 [Example 2-206, N-[(5-methyl-3-pyridyl)methyl]-4-[[8-[1-(4,4,4-trifluorobutanoyl)-3,6-dihydro-2H-pyridin-4-yl]-[1,2,4]triazolo[1,5-a]pyridin-2-yl]amino]benzamide]",3.4
20,"NCC1CN(C(=O)c2ccc(Nc3nc4c(C5=CCN(C(=O)CCC(F)(F)F)CC5)cccn4n3)cc2)C1 [Example 2-207, 1-[4-[2-[4-[3-(aminomethyl)azetidine-1-carbonyl]anilino]-[1,2,4]triazolo[1,5-a]pyridin-8-yl]-3,6-dihydro-2H-pyridin-1-yl]-4,4,4-trifluoro-butan-1-one]",141
21,"CC1CCN(C2CCN(C(=O)c3ccc(Nc4nc5c(C6=CCN(C(=O)CCC(F)(F)F)CC6)cccn5n4)cc3)CC2)CC1 [Example 2-208, 4,4,4-trifluoro-1-[4-[2-[4-[4-(4-methyl-1-piperidyl)piperidine-1-carbonyl]anilino]-[1,2,4]triazolo[1,5-a]pyridin-8-yl]-3,6-dihydro-2H-pyridin-1-yl]butan-1-one]",4.4
22,"COCCN(C(=O)c1ccc(Nc2nc3c(C4=CCN(C(=O)CCC(F)(F)F)CC4)cccn3n2)cc1)C1CCN(C)CC1 [Example 2-209, N-(2-methoxyethyl)-N-(1-methyl-4-piperidyl)-4-[[8-[1-(4,4,4-trifluorobutanoyl)-3,6-dihydro-2H-pyridin-4-yl]-[1,2,4]triazolo[1,5-a]pyridin-2-yl]amino]benzamide]",29.9
23,"CCN(CC)C1CCN(C(=O)c2ccc(Nc3nc4c(C5=CCN(C(=O)CCC(F)(F)F)CC5)cccn4n3)cc2)C1 (centres unmarked) [Example 2-211, 1-[4-[2-[4-[3-(diethylamino)pyrrolidine-1-carbonyl]anilino]-[1,2,4]triazolo[1,5-a]pyridin-8-yl]-3,6-dihydro-2H-pyridin-1-yl]-4,4,4-trifluoro-butan-1-one]",7.1
24,"CN(CCc1cccnc1)C(=O)c1ccc(Nc2nc3c(C4=CCN(C(=O)CCC(F)(F)F)CC4)cccn3n2)cc1 [Example 2-212, N-methyl-N-[2-(3-pyridyl)ethyl]-4-[[8-[1-(4,4,4-trifluorobutanoyl)-3,6-dihydro-2H-pyridin-4-yl]-[1,2,4]triazolo[1,5-a]pyridin-2-yl]amino]benzamide]",8
25,"CN1CCCCC1CNC(=O)c1ccc(Nc2nc3c(C4=CCN(C(=O)CCC(F)(F)F)CC4)cccn3n2)cc1 (centres unmarked) [Example 2-214, N-[(1-methyl-2-piperidyl)methyl]-4-[[8-[1-(4,4,4-trifluorobutanoyl)-3,6-dihydro-2H-pyridin-4-yl]-[1,2,4]triazolo[1,5-a]pyridin-2-yl]amino]benzamide]",5.5
26,"Cc1ccc(C2CCN(C(=O)c3ccc(Nc4nc5c(C6=CCN(C(=O)CCC(F)(F)F)CC6)cccn5n4)cc3)CC2)nc1 [Example 2-215, 4,4,4-trifluoro-1-[4-[2-[4-[4-(5-methyl-2-pyridyl)piperidine-1-carbonyl]anilino]-[1,2,4]triazolo[1,5-a]pyridin-8-yl]-3,6-dihydro-2H-pyridin-1-yl]butan-1-one]",13.5
